# Measured values from the OligoGym collection.
# After the bases stand the sugars from the 5' end (letter, count) and the backbone: PS all phosphorothioate, else s phosphorothioate and o phosphodiester by linkage. Methylation of C is not given here. l = locked nucleic acid (LNA); d = 2'-deoxy (DNA)
# Biological target: SNHG14
# Conditions: ASO
# [1] = Mouse Primary Neuronal Cell, 0.005 µM
Sequence,"target mRNA inhibition (Human Neuronal Cell, 7.5 µM)","target mRNA inhibition (Human Neuronal Cell, 0.2 µM)","target mRNA inhibition (Human Neuronal Cell, 1 µM)",other results
"GCAACATTATTAACCACCT (sugars ldddddddddddlldldll, PS)",39%,,,
"GCAACATTATTAACCACCT (sugars ldlddlddddddlldddll, PS)",44%,,,
"GCACATTCTTTCTATAC (sugars l1 d1 l3 d8 l4, PS)",59%,,,
"GCACATTCTTTCTATAC (sugars l3 d12 l2, PS)",52%,,,
"GCACATTCTTTCTATAC (sugars ldldlddddddlddlll, PS)",49%,,,
"GCACATTCTTTCTATACC (sugars l1 d1 l2 d11 l3, PS)",64%,,,
"GCACATTCTTTCTATACC (sugars l1 d3 l1 d11 l2, PS)",54%,,,
"GCATTCAACCCTAATCA (sugars l3 d12 l2, PS)",,39%,50%,
"GCTAATTTAAATTTCC (sugars l4 d10 l2, PS)",,49%,67%,
"GCTCCATATTTAAATC (sugars l4 d10 l2, PS)",,7%,20%,
"GCTTCATATTTCTCCA (sugars l2 d11 l3, PS)",,,63%,
"GCTTTTAACCAGAGT (sugars l3 d9 l3, PS)",73%,,,
"GCTTTTAACCAGAGTGGCA (sugars l1 d16 l2, PS)",46%,,,
"GCTTTTAACCAGAGTGGCAT (sugars l1 d16 l3, PS)",53%,,,
"GTTAACCTATATTTCA (sugars l4 d10 l2, PS)",,15%,6%,
"GTTACATATTCTTTCAC (sugars l3 d11 l3, PS)",,53%,67%,
"GTTACCTACATCTCATA (sugars l2 d13 l2, PS)",,-14%,11%,"target mRNA inhibition (Human Neuronal Cell, 5 µM): 13%; target mRNA inhibition [1]: 81%"
"GTTCTACTATACTTTCCT (sugars l1 d14 l3, PS)",46%,,,
"GTTCTCTTTATTTCTTCT (sugars l2 d12 l4, PS)",,31%,42%,
"GTTTATACCCTTTCCAAT (sugars l1 d1 l1 d13 l2, PS)",56%,,,
"GTTTATACCCTTTCCAAT (sugars ldldldddddddllddll, PS)",39%,,,
"GTTTCCATCTACTATTAA (sugars ldddldddddddldllll, PS)",62%,,,
"GTTTCCATCTACTATTAA (sugars ldldllddddddddddll, PS)",58%,,,

Sequence,"target mRNA inhibition (Human Neuronal Cell, 7.5 µM)","target mRNA inhibition (Human Neuronal Cell, 0.2 µM)","target mRNA inhibition (Human Neuronal Cell, 1 µM)",other results
"GTTTCCATCTACTATTAA (sugars ldlllddddddddlddll, PS)",49%,,,
"GTTTCCATCTACTATTAA (sugars llddldddddddldldll, PS)",31%,,,
"GTTTCCATCTACTATTAAT (sugars ldldddddddddddldlll, PS)",44%,,,
"GTTTCCATCTACTATTAAT (sugars llldlddddddddldddll, PS)",50%,,,
"TAAAATTATTTATACACCA (sugars ldddllddddddllddlll, PS)",55%,,,
"TAAAATTATTTATACACCA (sugars llldllddddddlllldll, PS)",7%,,,
"TAAAATTATTTATACACCAT (sugars l7 d6 l1 d3 l3, PS)",51%,,,
"TAAAATTATTTATACACCAT (sugars ldldllddddddddldllll, PS)",45%,,,
"TAAAATTATTTATACACCAT (sugars lldlllldddddddllldll, PS)",26%,,,
"TAAAGATCCCATCACT (sugars l4 d10 l2, PS)",,31%,50%,
"TACACATCTTGTATAC (sugars l3 d10 l3, PS)",,14%,36%,
"TACACTTAATTATACTTCCA (sugars l1 d2 l1 d13 l3, PS)",54%,,,
"TACACTTAATTATACTTCCA (sugars lddldldddddddlldddll, PS)",55%,,,
"TACACTTAATTATACTTCCA (sugars ldldddlddddddddlddll, PS)",58%,,,
"TACATCTCATACTTGC (sugars l2 d12 l2, PS)",,0%,-10%,"target mRNA inhibition (Human Neuronal Cell, 5 µM): 8%; target mRNA inhibition [1]: 80.8%"
"TACATCTCATACTTGCT (sugars l4 d11 l2, PS)",,,,target mRNA inhibition [1]: 95.3%
"TACATTATTATTTAACC (sugars l4 d11 l2, PS)",,11%,6%,
"TACCTACATCTCATACT (sugars l4 d11 l2, PS)",,-53%,-18%,"target mRNA inhibition (Human Neuronal Cell, 5 µM): 11%; target mRNA inhibition [1]: 94.4%"
"TACTATCTTTGACATT (sugars l4 d10 l2, PS)",,49%,58%,
"TACTCTGCAATACACCA (sugars ldddlddddddddldll, PS)",68%,,,
"TAGACTAATCCTCTTA (sugars l4 d10 l2, PS)",,48%,56%,
"TAGCCTACTTTAATAT (sugars l4 d10 l2, PS)",,25%,11%,
